Test results taken from patent publication US10208089B2, “Modulation of complement activity” (priority 2014, dated 2019).
Starred links: 1 amine or outer side, 2 acyl side, 3 side chain; linkers in the order of their positions; H or OH if unused. Positions of bridges follow the written chain, without caps; N, C: chain ends. Non-standard residues stand in square brackets, D forms with d. Residues, ends and D or L forms follow the SMILES beside them. Trp(7-aza) = N[C@@H](Cc1c[nH]c2ncccc12)C(=O)O; Phe(4-F) = N[C@@H](Cc1ccc(F)cc1)C(=O)O; Phg(2-OMe) = COc1ccccc1[C@H](N)C(=O)O; mXylylene = c1cc(C[*:1])cc(C[*:2])c1; pXylylene = c1cc(C[*:2])ccc1C[*:1]; dPhg = N[C@@H](C(=O)O)c1ccccc1; Chg = N[C@H](C(=O)O)C1CCCCC1; Phg = N[C@H](C(=O)O)c1ccccc1; Tle = CC(C)(C)[C@H](N)C(=O)O; NMeS = CN[C@@H](CO)C(=O)O; hCys = N[C@@H](CCS)C(=O)O; Nva = CCC[C@H](N)C(=O)O; Sar = CNCC(=O)O

target: C5 (Homo sapiens, UniProt P01031); test: Human hemolysis assay (RBC lysis assay using complete human sera); format: cell-based; parameters: with complete human sera (Complement Technology, Tyler Tex.) and polypeptides; tissue Complement Technology, Tyler Tex; host or cells: complete human serum; details: inhibition of lysis of antibody-sensitized sheep erythrocytes, complete human sera
Sequence (P01031 19-1676): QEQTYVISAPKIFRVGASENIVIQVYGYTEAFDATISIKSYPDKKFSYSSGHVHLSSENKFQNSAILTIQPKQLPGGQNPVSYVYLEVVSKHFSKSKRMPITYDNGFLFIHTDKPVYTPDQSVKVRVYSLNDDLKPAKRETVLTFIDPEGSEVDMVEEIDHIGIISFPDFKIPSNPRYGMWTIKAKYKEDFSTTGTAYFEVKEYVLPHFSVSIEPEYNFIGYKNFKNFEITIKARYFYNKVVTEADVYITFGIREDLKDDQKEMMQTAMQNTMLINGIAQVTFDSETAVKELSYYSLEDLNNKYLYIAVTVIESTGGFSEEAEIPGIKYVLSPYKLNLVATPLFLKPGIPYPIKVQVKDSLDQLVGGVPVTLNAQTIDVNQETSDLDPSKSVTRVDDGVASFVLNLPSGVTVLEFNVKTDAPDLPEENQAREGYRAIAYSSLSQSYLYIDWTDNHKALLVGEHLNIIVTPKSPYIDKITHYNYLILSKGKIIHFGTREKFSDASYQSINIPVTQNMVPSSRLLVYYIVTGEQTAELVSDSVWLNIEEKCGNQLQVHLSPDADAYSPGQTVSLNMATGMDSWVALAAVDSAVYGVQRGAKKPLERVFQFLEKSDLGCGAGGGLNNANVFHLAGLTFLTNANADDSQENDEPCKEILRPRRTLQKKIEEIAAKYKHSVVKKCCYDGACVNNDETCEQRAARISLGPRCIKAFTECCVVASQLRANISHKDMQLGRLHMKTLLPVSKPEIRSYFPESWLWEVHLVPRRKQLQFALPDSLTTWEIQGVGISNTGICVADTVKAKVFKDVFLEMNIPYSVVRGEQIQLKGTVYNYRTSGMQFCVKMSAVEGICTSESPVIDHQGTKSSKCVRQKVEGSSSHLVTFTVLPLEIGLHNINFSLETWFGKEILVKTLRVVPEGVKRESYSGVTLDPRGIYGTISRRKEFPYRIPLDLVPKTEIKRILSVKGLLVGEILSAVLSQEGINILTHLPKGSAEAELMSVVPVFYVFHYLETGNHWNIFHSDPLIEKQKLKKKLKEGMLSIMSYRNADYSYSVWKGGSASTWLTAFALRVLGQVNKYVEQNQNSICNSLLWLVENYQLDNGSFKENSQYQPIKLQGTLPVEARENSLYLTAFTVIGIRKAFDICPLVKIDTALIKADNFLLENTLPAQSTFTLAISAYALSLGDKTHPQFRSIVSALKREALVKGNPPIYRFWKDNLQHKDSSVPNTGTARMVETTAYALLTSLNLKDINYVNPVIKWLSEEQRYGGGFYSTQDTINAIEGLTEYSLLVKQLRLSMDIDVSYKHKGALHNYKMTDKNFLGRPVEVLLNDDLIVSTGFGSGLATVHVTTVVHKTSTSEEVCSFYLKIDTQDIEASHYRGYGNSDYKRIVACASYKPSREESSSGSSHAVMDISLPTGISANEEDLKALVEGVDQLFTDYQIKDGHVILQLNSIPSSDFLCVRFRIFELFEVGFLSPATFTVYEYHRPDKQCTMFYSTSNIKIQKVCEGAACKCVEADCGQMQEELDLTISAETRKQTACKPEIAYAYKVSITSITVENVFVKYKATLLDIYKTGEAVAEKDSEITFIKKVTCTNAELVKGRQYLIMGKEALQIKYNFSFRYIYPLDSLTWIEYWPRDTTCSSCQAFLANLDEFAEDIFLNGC

| Structure (SMILES) | IC50 |
| --- | --- |
| CC(=O)N[C@H]1CSCc2cccc(c2)CSC[C@@H](C(=O)N[C@@H](CC(=O)O)C(=O)N[C@H](C(=O)N[C@@H](Cc2ccc(O)cc2)C(=O)N[C@@H](Cc2c[nH]c3ccccc23)C(=O)N[C@@H](CCC(=O)O)C(=O)N[C@@H](Cc2ccc(O)cc2)C(=O)N2CCC[C@H]2C(N)=O)C(C)C)NC(=O)[C@H](Cc2ccccc2)NC(=O)[C@H](CCCNC(=N)N)NC(=O)[C@H](CCC(=O)O)NC(=O)[C@H](C(C)C)NC1=O [Compound R3140, [mXv1v1(1,6)]Ac-C-V-E-R-F-C-D-V-Y-W-E-Y-P-NH2] | 17.9 nM |
| CCC[C@H](NC(=O)[C@H](NC(=O)[C@@H]1CCCN1C(=O)[C@H](Cc1ccc(O)cc1)NC(=O)[C@H](CCC(=O)O)NC(=O)[C@H](Cc1c[nH]c2ncccc12)NC(=O)[C@H](Cc1ccc(O)cc1)NC(=O)[C@@H](NC(=O)[C@H](CC(=O)O)NC(=O)[C@@H]1CSCc2cccc(c2)CSC[C@H](NC(C)=O)C(=O)N[C@@H](C(C)C)C(=O)N[C@@H](C)C(=O)N[C@@H](CCCNC(=N)N)C(=O)N[C@@H](Cc2ccccc2)C(=O)N1)C(C)(C)C)c1ccccc1)C(N)=O [Compound R3151, [mXylyl(1,6)]Ac-C-V-A-R-F-C-D-Tbg-Y-azaTrp-E-Y-P-(D-Phg)-Nvl-NH2] (Ac-CVARFCD[Tle]Y[Trp(7-aza)]EYP[dPhg][Nva]-NH2; linker 1-6 via mXylylene) | 165 nM |
| CCC[C@H](NC(=O)[C@@H]1CSCc2cccc(c2)CSC[C@H](NC(=O)[C@H](CCC)NC(C)=O)C(=O)N[C@@H](c2ccccc2)C(=O)N[C@@H]([C@@H](C)O)C(=O)N[C@@H](Cc2c[nH]c3ncccc23)C(=O)N[C@@H](CCC(=O)O)C(=O)N[C@@H](Cc2ccc(O)cc2)C(=O)N(C)[C@@H](CO)C(=O)N[C@@H](Cc2c[nH]cn2)C(=O)N1)C(N)=O [Compound R3012, [mXylyl(2,10)]Ac-Nvl-C-Phg-T-azaTrp-E-Y-(N-Me)S-H-C-Nvl-NH2] (Ac-[Nva]C[Phg]T[Trp(7-aza)]EY[NMeS]HC[Nva]-NH2; linker 2-10 via mXylylene) | 148 nM |
| CCC[C@H](NC(=O)[C@@H]1CSCc2cccc(c2)CSC[C@H](NC(=O)[C@@H](NC(C)=O)C2CCCCC2)C(=O)N[C@@H](c2ccccc2)C(=O)N[C@@H]([C@@H](C)O)C(=O)N[C@@H](Cc2c[nH]c3ncccc23)C(=O)N[C@@H](CCC(=O)O)C(=O)N[C@@H](Cc2ccc(O)cc2)C(=O)N(C)[C@@H](CO)C(=O)N[C@@H](C)C(=O)N1)C(N)=O [Compound R3089, [mXylyl(2,10)]Ac-Chg-C-Phg-T-azaTrp-E-Y-(N-Me)S-A-C-Nvl-NH2] (Ac-[Chg]C[Phg]T[Trp(7-aza)]EY[NMeS]AC[Nva]-NH2; linker 2-10 via mXylylene) | > 15000 nM |
| CCC[C@H](NC(=O)[C@@H](NC(=O)[C@@H]1CCCN1C(=O)[C@H](Cc1ccc(O)cc1)NC(=O)[C@H](CCC(=O)O)NC(=O)[C@H](Cc1c[nH]c2ncccc12)NC(=O)[C@H](Cc1ccc(O)cc1)NC(=O)[C@@H](NC(=O)[C@H](CC(=O)O)NC(=O)[C@@H]1CSCc2cccc(c2)CSC[C@H](NC(C)=O)C(=O)N[C@@H](C(C)C)C(=O)N[C@@H](C)C(=O)N[C@@H](CCCNC(=N)N)C(=O)N[C@@H](Cc2ccccc2)C(=O)N1)C(C)(C)C)c1ccccc1)C(N)=O [Compound R3150, [mXylyl(1,6)]Ac-C-V-A-R-F-C-D-Tbg-Y-azaTrp-E-Y-P-Phg-Nvl-NH2] (Ac-CVARFCD[Tle]Y[Trp(7-aza)]EYP[Phg][Nva]-NH2; linker 1-6 via mXylylene) | 37 nM |
| CC(=O)N[C@H]1CSCc2cccc(c2)CSC[C@@H](C(=O)N[C@@H](CC(=O)O)C(=O)N[C@H](C(=O)N[C@@H](Cc2ccc(O)cc2)C(=O)N[C@@H](Cc2c[nH]c3ccccc23)C(=O)N[C@@H](CCC(=O)O)C(=O)N[C@@H](Cc2ccc(O)cc2)C(=O)N2CCC[C@H]2C(N)=O)C(C)(C)C)NC(=O)[C@H](Cc2ccccc2)NC(=O)[C@H](CCCNC(=N)N)NC(=O)[C@H](CCC(=O)O)NC(=O)[C@H](C(C)C)NC1=O [Compound R3143, [mXyly1(1,6)]Ac-C-V-E-R-F-C-D-Tbg-Y-W-E-Y-P-NH2] (Ac-CVERFCD[Tle]YWEYP-NH2; linker 1-6 via mXylylene) | 18.6 nM |
| CCC[C@H](NC(=O)[C@@H]1CCSCc2cccc(c2)CSCC[C@H](NC(=O)[C@H](CCC)NC(C)=O)C(=O)N[C@@H](c2ccccc2)C(=O)N[C@@H]([C@@H](C)O)C(=O)N[C@@H](Cc2c[nH]c3ncccc23)C(=O)N[C@@H](CCC(=O)O)C(=O)N[C@@H](Cc2ccc(O)cc2)C(=O)N(C)[C@@H](CO)C(=O)N[C@@H](Cc2c[nH]cn2)C(=O)N1)C(N)=O [Compound R3107, [mXylyl(2,10)]Ac-Nvl-homoC-Phg-T-azaTrp-E-Y-(N-Me)S-H-homoC-Nvl-NH2] (Ac-[Nva][hCys][Phg]T[Trp(7-aza)]EY[NMeS]H[hCys][Nva]-NH2; linker 2-10 via mXylylene) | > 75000 nM |
| CCC[C@H](NC(=O)[C@@H](NC(=O)[C@@H]1CCCN1C(=O)[C@H](Cc1ccc(O)cc1)NC(=O)[C@H](CCC(=O)O)NC(=O)[C@H](Cc1c[nH]c2ncccc12)NC(=O)[C@H](Cc1ccc(O)cc1)NC(=O)[C@@H](NC(=O)[C@H](C)NC(=O)[C@@H]1CSCc2cccc(c2)CSC[C@H](NC(C)=O)C(=O)N[C@@H](C(C)C)C(=O)N[C@@H](CCC(=O)O)C(=O)N[C@@H](CCCNC(=N)N)C(=O)N[C@@H](Cc2ccccc2)C(=O)N1)C(C)(C)C)c1ccccc1)C(N)=O [Compound R3157, [mXylyl(1,6)]Ac-C-V-E-R-F-C-A-Tbg-Y-azaTrp-E-Y-P-Phg-Nvl-NH2] (Ac-CVERFCA[Tle]Y[Trp(7-aza)]EYP[Phg][Nva]-NH2; linker 1-6 via mXylylene) | 84.5 nM |
| CC(=O)N[C@H]1CSCc2cccc(c2)CSC[C@@H](C(=O)N[C@@H](Cc2c[nH]c3ccccc23)C(=O)N[C@@H](CCC(=O)O)C(=O)N[C@@H](Cc2ccccc2)C(N)=O)NC(=O)[C@H](Cc2ccccc2)NC(=O)[C@H](CCCNC(=N)N)NC(=O)[C@H](CCC(=O)O)NC(=O)[C@H](C(C)C)NC1=O [Compound R3125, [mXylyl(1,6)]Ac-C-V-E-R-F-C-W-E-F-NH2] (Ac-CVERFCWEF-NH2; linker 1-6 via mXylylene) | > 100000 nM |
| CCCCCCCCCCCC(=O)NCCCC[C@H](NC(=O)[C@@H](NC(=O)[C@@H]1CCCN1C(=O)[C@H](Cc1ccc(O)cc1)NC(=O)[C@H](CCC(=O)O)NC(=O)[C@H](Cc1c[nH]c2ncccc12)NC(=O)[C@H](Cc1ccc(O)cc1)NC(=O)[C@@H](NC(=O)[C@H](CC(=O)O)NC(=O)[C@@H]1CSCc2cccc(c2)CSC[C@H](NC(C)=O)C(=O)N[C@@H](C)C(=O)N[C@@H](CCC(=O)O)C(=O)N[C@@H](CCCNC(=N)N)C(=O)N[C@@H](Cc2ccccc2)C(=O)N1)C(C)(C)C)c1ccccc1)C(N)=O [Compound R3164, [mXylyl(1,6)]Ac-C-A-E-R-F-C-D-Tbg-Y-azaTrp-E-Y-P-Phg-(Lys-C12)-NH2] | 36 nM |
| CCC[C@H](NC(=O)[C@@H]1CSCc2cccc(c2)CSC[C@H](NC(=O)[C@H](CCC)NC(C)=O)C(=O)N[C@@H](c2ccccc2)C(=O)N[C@@H]([C@@H](C)O)C(=O)N[C@@H](Cc2c[nH]c3ncccc23)C(=O)N[C@@H](CCC(=O)O)C(=O)N[C@@H](Cc2ccc(O)cc2)C(=O)N(C)[C@@H](CO)C(=O)N[C@@H](C)C(=O)N1)C(N)=O [Compound R3038, [mXylyl(2,10)]Ac-Nvl-C-Phg-T-azaTrp-E-Y-(N-Me)S-A-C-Nvl-NH2] (Ac-[Nva]C[Phg]T[Trp(7-aza)]EY[NMeS]AC[Nva]-NH2; linker 2-10 via mXylylene) | 140 nM |
| CCC[C@H](NC(C)=O)C(=O)N[C@H]1CSCc2cccc(c2)CSC[C@@H](C(N)=O)NC(=O)[C@@H]2CCCN2C(=O)[C@H](CCC)NC(=O)[C@H](CCC)NC(=O)[C@H](CCC(=O)O)NC(=O)[C@H](Cc2c[nH]c3ncccc23)NC(=O)[C@H](Cc2ccc(O)cc2)NC(=O)[C@H](C(C)(C)C)NC(=O)CN(C)C(=O)[C@H](CCC(=O)O)NC(=O)[C@H](Cc2ccc(O)cc2)NC1=O [Compound R3010, [mXylyl(2,13)]Ac-Nvl-C-Y-E-(N-Me)G-Tbg-Y-azaTrp-E-Nvl-Nvl-P-C-NH2] (Ac-[Nva]CYE[Sar][Tle]Y[Trp(7-aza)]E[Nva][Nva]PC-NH2; linker 2-13 via mXylylene) | > 100000 nM |
| CCC[C@H](NC(=O)[C@@H]1CSCc2ccc(cc2)CSC[C@H](NC(=O)[C@H](CCC)NC(C)=O)C(=O)N[C@@H](c2ccccc2)C(=O)N[C@@H]([C@@H](C)O)C(=O)N[C@@H](Cc2c[nH]c3ncccc23)C(=O)N[C@@H](CCC(=O)O)C(=O)N[C@@H](Cc2ccc(O)cc2)C(=O)N2CCC[C@H]2C(=O)N[C@@H](Cc2c[nH]cn2)C(=O)N1)C(N)=O [Compound R3065, [pXy1y1(2,10)]Ac-Nvl-C-PhE-T-azaTrp-E-Y-P-H-C-Nvl-NH2] (Ac-[Nva]C[Phg]T[Trp(7-aza)]EYPHC[Nva]-NH2; linker 2-10 via pXylylene) | 394 nM |
| CCC[C@H](NC(=O)[C@@H]1CSCc2cccc(c2)CSC[C@H](NC(=O)[C@H](CCC)NC(C)=O)C(=O)N[C@@H](c2ccccc2OC)C(=O)N[C@@H]([C@@H](C)O)C(=O)N[C@@H](Cc2c[nH]c3ncccc23)C(=O)N[C@@H](CCC(=O)O)C(=O)N[C@@H](Cc2ccc(O)cc2)C(=O)N(C)[C@@H](CO)C(=O)N[C@@H](Cc2c[nH]cn2)C(=O)N1)C(N)=O [Compound R3087, [mXylyl(2,10)]Ac-Nvl-C-(2-OMe)Phg-T-azaTrp-E-Y-(N-Me)S-H-C-Nvl-NH2] (Ac-[Nva]C[Phg(2-OMe)]T[Trp(7-aza)]EY[NMeS]HC[Nva]-NH2; linker 2-10 via mXylylene) | > 25000 nM |
| CCC[C@H](NC(=O)[C@@H]1CSCc2cccc(c2)CSC[C@H](NC(=O)[C@H](CCC)NC(C)=O)C(=O)N[C@@H](c2ccccc2)C(=O)N[C@@H]([C@@H](C)O)C(=O)N[C@@H](Cc2c[nH]c3ncccc23)C(=O)N[C@@H](CCC(=O)O)C(=O)N[C@@H](Cc2ccc(F)cc2)C(=O)N(C)[C@@H](CO)C(=O)N[C@@H](Cc2c[nH]cn2)C(=O)N1)C(N)=O [Compound R3073, [mXyly1(2,10)]Ac-Nvl-C-Phg-T-azaTrp-E-Phe(4-F)-(N-Me)S-H-C-Nvl-NH2] (Ac-[Nva]C[Phg]T[Trp(7-aza)]E[Phe(4-F)][NMeS]HC[Nva]-NH2; linker 2-10 via mXylylene) | 403 nM |

same assay, conditions: variants of R3021, R3002 or R3008

| Structure (SMILES) | ability to inhibit red blood cell lysis compared with the parent polypeptide (in words) |
| --- | --- |
| CC(=O)N[C@H]1CSCc2cccc(c2)CSC[C@@H](C(=O)N[C@@H](Cc2c[nH]c3ccccc23)C(=O)N[C@@H](CCC(=O)O)C(=O)N[C@@H](Cc2ccccc2)C(N)=O)NC(=O)[C@H](Cc2ccccc2)NC(=O)[C@H](CCCNC(=N)N)NC(=O)[C@H](CCC(=O)O)NC(=O)[C@H](C(C)C)NC1=O [Compound R3125, [mXylyl(1,6)]Ac-C-V-E-R-F-C-W-E-F-NH2] (Ac-CVERFCWEF-NH2; linker 1-6 via mXylylene) | decrease in the ability |

same assay, conditions: variants of R3021 with internal amino acid deletions; inhibition of red blood cell lysis

| Structure (SMILES) | IC50 |
| --- | --- |
| CC(=O)N[C@H]1CSCc2cccc(c2)CSC[C@@H](C(=O)N[C@@H](Cc2c[nH]c3ccccc23)C(=O)N[C@@H](CCC(=O)O)C(=O)N[C@@H](Cc2ccccc2)C(N)=O)NC(=O)[C@H](Cc2ccccc2)NC(=O)[C@H](CCCNC(=N)N)NC(=O)[C@H](CCC(=O)O)NC(=O)[C@H](C(C)C)NC1=O [Compound R3125, [mXylyl(1,6)]Ac-C-V-E-R-F-C-W-E-F-NH2] (Ac-CVERFCWEF-NH2; linker 1-6 via mXylylene) | > 100000 nM |
